From patent US5087440A, “Heterocyclic derivatives of DTPA used for magnetic resonance imaging” (Salutar, Inc., priority 1990, dated 1992)

Experiments:
Swiss Webster mice = test: Acute toxicity (LD50), iv administration to mice; assay type: in vivo; details: 500 mM Gd chelate alone or with 25 mM added Ca chelate
Description: Acute toxicity (LD50) values were determined for compositions comprising 500 mM Gd DTPA-APD alone or together with 25 mM of the calcium chelate of DTPA-APD and, for further comparison, for compositions comprising 500 mM Gd DTPA-dimeglumine alone or together with 25 mM of a calcium chelate of DTPA or a DTPA-bisamide (the bismethylamide. The acute toxicities were determined by iv administrations of the compositions to Swiss Webster mice.

[1] = iv administration; AU-81889/87; cited from earlier work

CNC[C@H](O)[C@@H](O)[C@H](O)[C@H](O)CO.CNC[C@H](O)[C@@H](O)[C@H](O)[C@H](O)CO.O=C([O-])CN(CCN(CC(=O)[O-])CC(=O)O)CCN(CC(=O)[O-])CC(=O)O.[Gd+3] [Gd DTPA]
LD50 (iv mice) (Swiss Webster mice): 5.5 mmol/kg
gadolinium retention (in words) [1]: gadolinium retention following iv administration
